# From patent publication US12077503B2, “Substituted cyclic amides and their use as herbicides” (FMC CORPORATION, priority 2015, dated 2024)
# How the values were obtained:
# Assay type in all cases: in vivo
# [1] = system: sedge, umbrella (small-flower umbrella sedge, Cyperus difformis); test: Test B flooded paddy test; conditions: Cyperus difformis, 250 g ai/ha, Flood; 0 to 100 scale where 0 is no effect and 100 is complete control; read-out: Sedge, Umbrella plant response rating
# In short: (§1)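 Percent control, visually estimated after 13–15 d in the greenhouse on a 0–100 basis, compares treated pots with untreated ones; compound was put into paddy water 3 cm above the soil when plants had two leaves.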
# [2] = system: barnyardgrass (Echinochloa crus-galli); test: Test B flooded paddy test; conditions: Echinochloa crus-galli, 250 g ai/ha, Flood; 0 to 100 scale where 0 is no effect and 100 is complete control; read-out: Barnyardgrass plant response rating
# In short: as §1
# [3] = system: rice (Oryra sativa); test: Test B flooded paddy test; conditions: Oryza sativa, 250 g ai/ha, Flood; 0 to 100 scale where 0 is no effect and 100 is complete control; read-out: Rice plant response rating
# In short: as §1
# [4] = system: ducksalad (Heteranthera limosa); test: Test B flooded paddy test; conditions: Heteranthera limosa, 250 g ai/ha, Flood; 0 to 100 scale where 0 is no effect and 100 is complete control; read-out: Ducksalad plant response rating
# In short: as §1
# [5] = system: wheat (Triticum aestivum); test: Test A postemergence; conditions: Triticum aestivum, post-emergence, 240 h
# In short: (§2)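 Preemergence soil spray on seeded pots or post-emergence spray on 1–2 leaf plants, in loam–sand blend. Greenhouse ~10 d. Visual rating 0–100 against untreated plants.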
# [6] = system: ryegrass, Italian (Italian ryegrass, Lolium multiflorum); test: Test A postemergence; conditions: Lolium multiflorum, post-emergence, 240 h
# In short: as §2
# [7] = system: barnyardgrass (Echinochloa crus-galli); test: Test A postemergence; conditions: Echinochloa crus-galli, post-emergence, 240 h
# In short: as §2
# [8] = system: pigweed (Amaranthus retroflexus); test: Test A postemergence; conditions: Amaranthus retroflexus, post-emergence, 240 h
# In short: as §2
# [9] = system: blackgrass (Alopecurus myosuroides); test: Test A postemergence; conditions: Alopecurus myosuroides, post-emergence, 240 h
# In short: as §2
# [10] = system: ragweed (common ragweed, Ambrosia elatior); test: Test A postemergence; conditions: Ambrosia artemisiifolia, post-emergence, 240 h
# In short: as §2
# [11] = system: Kochia (Kochia scoparia); test: Test A postemergence; conditions: Bassia scoparia, post-emergence, 240 h
# In short: as §2
# [12] = system: giant foxtail (Setaria faberii); test: Test A postemergence; conditions: Setaria faberi, post-emergence, 240 h
# In short: as §2
# [13] = system: Galium (catchweed bedstraw, Galium aparine); test: Test A postemergence; conditions: Galium, post-emergence, 240 h
# In short: as §2
# [14] = system: corn (Zea mays); test: Test A postemergence; conditions: Zea mays, post-emergence, 240 h
# In short: as §2
# [15] = system: ryegrass, Italian (Italian ryegrass, Lolium multiflorum); test: Test A preemergence; conditions: Lolium multiflorum, pre-emergence, 240 h, 0 to 100 scale where 0 is no effect and 100 is complete control, read-out: Ryegrass, Italian plant response rating
# In short: as §2
# [16] = system: barnyardgrass (Echinochloa crus-galli); test: Test A preemergence; conditions: Echinochloa crus-galli, pre-emergence, 240 h, 0 to 100 scale where 0 is no effect and 100 is complete control, read-out: Barnyardgrass plant response rating
# In short: as §2
# [17] = system: pigweed (Amaranthus retroflexus); test: Test A preemergence; conditions: Amaranthus retroflexus, pre-emergence, 240 h, 0 to 100 scale where 0 is no effect and 100 is complete control, read-out: Pigweed plant response rating
# [18] = system: ragweed (common ragweed, Ambrosia elatior); test: Test A preemergence; conditions: Ambrosia artemisiifolia, pre-emergence, 240 h, 0 to 100 scale where 0 is no effect and 100 is complete control, read-out: Ragweed plant response rating
# In short: as §2
# [19] = system: Kochia (Kochia scoparia); test: Test A preemergence; conditions: Bassia scoparia, pre-emergence, 240 h, 0 to 100 scale where 0 is no effect and 100 is complete control, read-out: Kochia plant response rating
# In short: as §2
# [20] = system: giant foxtail (Setaria faberii); test: Test A preemergence; conditions: Setaria faberi, pre-emergence, 240 h, 0 to 100 scale where 0 is no effect and 100 is complete control, read-out: Foxtail, Giant plant response rating
# In short: as §2
# [21] = 125 g ai/ha, preemergence, approx. 10 d
smiles,measurement,setting,value
CN1C[C@H](c2csc3c2CCC3)[C@@H](C(=O)Nc2ccccc2S(C)(=O)=O)C1=O [Compound 1082],pest or weed control at 250 g/ha,[1],0%
same,pest or weed control at 250 g/ha,[2],0%
same,pest or weed control at 250 g/ha,[3],35%
same,pest or weed control at 250 g/ha,[4],70%
same,plant injury at 125 g/ha,"[5]; 125 g ai/ha, postemergence, visual injury on 0 to 100 scale (0 no effect, 100 complete control), approx. 10 d, read-out: Wheat plant response rating",0%
same,plant injury at 31 g/ha,"[5]; Postemergence, 31 g ai/ha, visual injury after approx. 10 d, 0 to 100 scale, 0 no effect, 100 complete control, read-out: Plant response rating, Wheat",0%
same,pest or weed control at 125 g/ha,"[6]; 125 g ai/ha, postemergence, visual injury on 0 to 100 scale (0 no effect, 100 complete control), approx. 10 d, read-out: Ryegrass, Italian plant response rating",0%
same,pest or weed control at 31 g/ha,"[6]; Postemergence, 31 g ai/ha, visual injury after approx. 10 d, 0 to 100 scale, 0 no effect, 100 complete control, read-out: Plant response rating, Ryegrass, Italian",0%
same,pest or weed control at 125 g/ha,"[7]; 125 g ai/ha, postemergence, visual injury on 0 to 100 scale (0 no effect, 100 complete control), approx. 10 d, read-out: Barnyardgrass plant response rating",30%
same,pest or weed control at 31 g/ha,"[7]; Postemergence, 31 g ai/ha, visual injury after approx. 10 d, 0 to 100 scale, 0 no effect, 100 complete control, read-out: Plant response rating, Barnyardgrass",0%
same,pest or weed control at 125 g/ha,"[8]; 125 g ai/ha, postemergence, visual injury on 0 to 100 scale (0 no effect, 100 complete control), approx. 10 d, read-out: Pigweed plant response rating",0%
same,pest or weed control at 31 g/ha,"[8]; Postemergence, 31 g ai/ha, visual injury after approx. 10 d, 0 to 100 scale, 0 no effect, 100 complete control, read-out: Plant response rating, Pigweed",0%
same,pest or weed control at 125 g/ha,"[9]; 125 g ai/ha, postemergence, visual injury on 0 to 100 scale (0 no effect, 100 complete control), approx. 10 d, read-out: Blackgrass plant response rating",0%
same,pest or weed control at 31 g/ha,"[9]; Postemergence, 31 g ai/ha, visual injury after approx. 10 d, 0 to 100 scale, 0 no effect, 100 complete control, read-out: Plant response rating, Blackgrass",0%
same,pest or weed control at 125 g/ha,"[10]; 125 g ai/ha, postemergence, visual injury on 0 to 100 scale (0 no effect, 100 complete control), approx. 10 d, read-out: Ragweed plant response rating",0%
same,pest or weed control at 31 g/ha,"[10]; Postemergence, 31 g ai/ha, visual injury after approx. 10 d, 0 to 100 scale, 0 no effect, 100 complete control, read-out: Plant response rating, Ragweed",0%
same,pest or weed control at 125 g/ha,"[11]; 125 g ai/ha, postemergence, visual injury on 0 to 100 scale (0 no effect, 100 complete control), approx. 10 d, read-out: Kochia plant response rating",0%
same,pest or weed control at 31 g/ha,"[11]; Postemergence, 31 g ai/ha, visual injury after approx. 10 d, 0 to 100 scale, 0 no effect, 100 complete control, read-out: Plant response rating, Kochia",0%
same,pest or weed control at 125 g/ha,"[12]; 125 g ai/ha, postemergence, visual injury on 0 to 100 scale (0 no effect, 100 complete control), approx. 10 d, read-out: Foxtail, Giant plant response rating",0%
same,pest or weed control at 31 g/ha,"[12]; Postemergence, 31 g ai/ha, visual injury after approx. 10 d, 0 to 100 scale, 0 no effect, 100 complete control, read-out: Plant response rating, Foxtail, Giant",0%
same,pest or weed control at 125 g/ha,"[13]; 125 g ai/ha, postemergence, visual injury on 0 to 100 scale (0 no effect, 100 complete control), approx. 10 d, read-out: Galium plant response rating",0%
same,pest or weed control at 31 g/ha,"[13]; Postemergence, 31 g ai/ha, visual injury after approx. 10 d, 0 to 100 scale, 0 no effect, 100 complete control, read-out: Plant response rating, Galium",0%
same,plant injury at 125 g/ha,"[14]; 125 g ai/ha, postemergence, visual injury on 0 to 100 scale (0 no effect, 100 complete control), approx. 10 d, read-out: Corn plant response rating",30%
same,"Corn plant response rating (crop injury, 0 = no effect, 100 = complete kill) at 31 g/ha","[14]; Postemergence, 31 g ai/ha, visual injury after approx. 10 d, 0 to 100 scale, 0 no effect, 100 complete control",0%
same,pest or weed control at 31 g/ha,"[15]; 31 g ai/ha, Preemergence",0%
same,pest or weed control at 125 g/ha,[15]; [21],0%
same,pest or weed control at 31 g/ha,"[16]; 31 g ai/ha, Preemergence",0%
same,pest or weed control at 125 g/ha,[16]; [21],0%
same,pest or weed control at 31 g/ha,"[17]; 31 g ai/ha, Preemergence",0%
same,pest or weed control at 125 g/ha,[17]; [21],0%
same,pest or weed control at 31 g/ha,"[18]; 31 g ai/ha, Preemergence",0%
same,pest or weed control at 125 g/ha,[18]; [21],0%
same,pest or weed control at 31 g/ha,"[19]; 31 g ai/ha, Preemergence",0%
same,pest or weed control at 125 g/ha,[19]; [21],0%
same,pest or weed control at 31 g/ha,"[20]; 31 g ai/ha, Preemergence",0%
same,pest or weed control at 125 g/ha,[20]; [21],0%
